Measured values from the NIST ThermoML archive (doi:10.1021/je060271a).
Where “and” joins values, the source holds several entries; their conditions need not be identical. Identical values can stand only once. ± gives the expanded uncertainty stated by the source.

Settings: 283.15 K, Liquid, Vibrating tube method

CCCCCCCC(=O)OCC(COC(=O)CCCCCCC)(COC(=O)CCCCCCC)COC(=O)CCCCCCC [pentaerythritol tetraoctanoate]
mass density (105.3 kPa): 970.3 ± 1.2 kg/m3 | mass density (105.5 kPa): 970.3 ± 1.2 kg/m3 and 970.4 ± 1.2 kg/m3 | mass density (105.6 kPa): 970.3 ± 1.2 kg/m3 | mass density (105.8 kPa): 970.4 ± 1.2 kg/m3 | mass density (106.7 kPa): 970.3 ± 1.2 kg/m3 | mass density (110 kPa): 970.3 ± 1.2 kg/m3 | mass density (125.3 kPa): 970.3 ± 1.2 kg/m3 | mass density (155.9 kPa): 970.3 ± 1.2 kg/m3 | mass density (203.3 kPa): 970.4 ± 1.2 kg/m3 | mass density (224.9 kPa): 970.3 ± 1.2 kg/m3 | mass density (235.2 kPa): 970.4 ± 1.2 kg/m3 | mass density (246.6 kPa): 970.5 ± 1.2 kg/m3 | mass density (262.8 kPa): 970.4 ± 1.2 kg/m3 | mass density (277.9 kPa): 970.4 ± 1.2 kg/m3 | mass density (295.3 kPa): 970.4 ± 1.2 kg/m3 | mass density (319.3 kPa): 970.4 ± 1.2 kg/m3 | mass density (342 kPa): 970.5 ± 1.2 kg/m3 | mass density (369 kPa): 970.5 ± 1.2 kg/m3 | mass density (405 kPa): 970.4 ± 1.2 kg/m3 | mass density (438.1 kPa): 970.4 ± 1.2 kg/m3 | mass density (468.4 kPa): 970.6 ± 1.2 kg/m3 | mass density (495.5 kPa): 970.6 ± 1.2 kg/m3 | mass density (514.6 kPa): 970.6 ± 1.2 kg/m3 | mass density (534.1 kPa): 970.6 ± 1.2 kg/m3 | mass density (557.4 kPa): 970.6 ± 1.2 kg/m3 | mass density (575.1 kPa): 970.6 ± 1.2 kg/m3 | mass density (593.5 kPa): 970.7 ± 1.2 kg/m3 | mass density (616.6 kPa): 970.7 ± 1.2 kg/m3 | mass density (636.3 kPa): 970.5 ± 1.2 kg/m3 | mass density (653.5 kPa): 970.7 ± 1.2 kg/m3 | mass density (671.5 kPa): 970.7 ± 1.2 kg/m3 | mass density (693.4 kPa): 970.7 ± 1.2 kg/m3 | mass density (713.6 kPa): 970.7 ± 1.2 kg/m3 | mass density (734.1 kPa): 970.7 ± 1.2 kg/m3 | mass density (760.8 kPa): 970.8 ± 1.2 kg/m3 | mass density (784.3 kPa): 970.7 ± 1.2 kg/m3 | mass density (808.6 kPa): 970.7 ± 1.2 kg/m3 | mass density (834.5 kPa): 970.7 ± 1.2 kg/m3 | mass density (866.8 kPa): 970.7 ± 1.2 kg/m3 | mass density (896 kPa): 970.7 ± 1.2 kg/m3 | mass density (926.4 kPa): 970.8 ± 1.2 kg/m3 | mass density (962 kPa): 970.8 ± 1.2 kg/m3 | mass density (986 kPa): 970.9 ± 1.2 kg/m3 | mass density (1010.4 kPa): 970.9 ± 1.2 kg/m3 | mass density (1035.5 kPa): 970.8 ± 1.2 kg/m3 | mass density (1066.4 kPa): 970.9 ± 1.2 kg/m3 | mass density (1094 kPa): 970.9 ± 1.2 kg/m3 | mass density (1122.1 kPa): 970.9 ± 1.2 kg/m3 | mass density (1158.4 kPa): 971 ± 1.2 kg/m3 | mass density (1189.3 kPa): 971 ± 1.2 kg/m3 | mass density (1219.2 kPa): 971 ± 1.2 kg/m3 | mass density (1247.3 kPa): 971 ± 1.2 kg/m3 | mass density (1270.1 kPa): 971 ± 1.2 kg/m3 | mass density (1293 kPa): 971 ± 1.2 kg/m3 | mass density (1317.3 kPa): 971 ± 1.2 kg/m3 | mass density (1349.3 kPa): 971.1 ± 1.2 kg/m3 | mass density (1370.1 kPa): 971 ± 1.2 kg/m3 | mass density (1401.5 kPa): 971 ± 1.2 kg/m3 | mass density (1428.9 kPa): 971 ± 1.2 kg/m3 | mass density (1457.4 kPa): 971 ± 1.2 kg/m3 | mass density (1492.1 kPa): 971.2 ± 1.2 kg/m3 | mass density (1522.7 kPa): 971.1 ± 1.2 kg/m3 | mass density (1554.3 kPa): 971.1 ± 1.2 kg/m3 | mass density (1587.1 kPa): 971.2 ± 1.2 kg/m3 | mass density (1627.7 kPa): 971.1 ± 1.2 kg/m3 | mass density (1662.8 kPa): 971.2 ± 1.2 kg/m3 | mass density (1700.3 kPa): 971.2 ± 1.2 kg/m3 | mass density (1747.1 kPa): 971.3 ± 1.2 kg/m3 | mass density (1789.7 kPa): 971.2 ± 1.2 kg/m3 | mass density (1830.4 kPa): 971.3 ± 1.2 kg/m3 | mass density (1873.1 kPa): 971.3 ± 1.2 kg/m3 | mass density (1917.2 kPa): 971.4 ± 1.2 kg/m3 | mass density (1972.4 kPa): 971.4 ± 1.2 kg/m3 | mass density (2020.6 kPa): 971.4 ± 1.2 kg/m3 | mass density (2068.2 kPa): 971.4 ± 1.2 kg/m3 | mass density (2110.9 kPa): 971.5 ± 1.2 kg/m3 | mass density (2137.9 kPa): 971.4 ± 1.2 kg/m3 | mass density (2158.6 kPa): 971.5 ± 1.2 kg/m3 | mass density (2179.8 kPa): 971.5 ± 1.2 kg/m3 | mass density (2205.6 kPa): 971.5 ± 1.2 kg/m3 | mass density (2227.8 kPa): 971.7 ± 1.2 kg/m3 | mass density (2250.5 kPa): 971.5 ± 1.2 kg/m3 | mass density (2273.6 kPa): 971.6 ± 1.2 kg/m3 | mass density (2301.4 kPa): 971.6 ± 1.2 kg/m3 | mass density (2325.3 kPa): 971.7 ± 1.2 kg/m3 | mass density (2348.9 kPa): 971.5 ± 1.2 kg/m3 | mass density (2373 kPa): 971.7 ± 1.2 kg/m3 | mass density (2403 kPa): 971.7 ± 1.2 kg/m3 | mass density (2427.5 kPa): 971.6 ± 1.2 kg/m3 | mass density (2457.8 kPa): 971.7 ± 1.2 kg/m3 | mass density (2484 kPa): 971.6 ± 1.2 kg/m3 | mass density (2510.7 kPa): 971.8 ± 1.2 kg/m3 | mass density (2543.2 kPa): 971.8 ± 1.2 kg/m3 | mass density (2571.1 kPa): 971.7 ± 1.2 kg/m3 | mass density (2600.6 kPa): 971.7 ± 1.2 kg/m3 | mass density (2629 kPa): 971.8 ± 1.2 kg/m3 | mass density (2663.7 kPa): 971.7 ± 1.2 kg/m3 | mass density (2693.4 kPa): 971.8 ± 1.2 kg/m3 | mass density (2723.9 kPa): 971.8 ± 1.2 kg/m3 | mass density (2760.8 kPa): 971.9 ± 1.2 kg/m3 | mass density (2792.7 kPa): 971.8 ± 1.2 kg/m3 | mass density (2824.8 kPa): 971.9 ± 1.2 kg/m3 | mass density (2857.6 kPa): 971.9 ± 1.2 kg/m3 | mass density (2897.6 kPa): 971.9 ± 1.2 kg/m3 | mass density (2931.4 kPa): 971.9 ± 1.2 kg/m3 | mass density (2966.3 kPa): 972 ± 1.2 kg/m3 | mass density (3008.8 kPa): 972 ± 1.2 kg/m3 | mass density (3045.9 kPa): 972.1 ± 1.2 kg/m3 | mass density (3082.4 kPa): 972.1 ± 1.2 kg/m3 | mass density (3127.9 kPa): 971.9 ± 1.2 kg/m3 | mass density (3166.3 kPa): 972 ± 1.2 kg/m3 | mass density (3205 kPa): 972.1 ± 1.2 kg/m3 | mass density (3245 kPa): 972 ± 1.2 kg/m3 | mass density (3285.9 kPa): 972.1 ± 1.2 kg/m3 | mass density (3335.9 kPa): 972.2 ± 1.2 kg/m3 | mass density (3377.6 kPa): 972.1 ± 1.2 kg/m3 | mass density (3420.8 kPa): 972.2 ± 1.2 kg/m3 | mass density (3473.3 kPa): 972.3 ± 1.2 kg/m3 | mass density (3517.6 kPa): 972.2 ± 1.2 kg/m3 | mass density (3564.3 kPa): 972.3 ± 1.2 kg/m3 | mass density (3620 kPa): 972.3 ± 1.2 kg/m3 | mass density (3667.5 kPa): 972.3 ± 1.2 kg/m3 | mass density (3715.9 kPa): 972.5 ± 1.2 kg/m3 | mass density (3763.5 kPa): 972.5 ± 1.2 kg/m3 | mass density (3809.1 kPa): 972.5 ± 1.2 kg/m3 | mass density (3824.1 kPa): 972.4 ± 1.2 kg/m3 | mass density (3841.3 kPa): 972.6 ± 1.2 kg/m3 | mass density (3855.7 kPa): 972.5 ± 1.2 kg/m3 | mass density (3869.7 kPa): 972.6 ± 1.2 kg/m3 | mass density (3883.9 kPa): 972.5 ± 1.2 kg/m3 | mass density (3899.8 kPa): 972.5 ± 1.2 kg/m3 | mass density (4015.4 kPa): 972.5 ± 1.2 kg/m3 | mass density (4176.4 kPa): 972.7 ± 1.2 kg/m3 | mass density (4313.4 kPa): 972.7 ± 1.2 kg/m3 | mass density (4335.2 kPa): 972.8 ± 1.2 kg/m3 | mass density (4353.7 kPa): 972.9 ± 1.2 kg/m3 | mass density (4372.3 kPa): 972.8 ± 1.2 kg/m3 | mass density (4391.7 kPa): 972.7 ± 1.2 kg/m3 | mass density (4414.3 kPa): 972.8 ± 1.2 kg/m3 | mass density (4433.6 kPa): 972.8 ± 1.2 kg/m3 | mass density (4453.1 kPa): 972.8 ± 1.2 kg/m3 | mass density (4475.4 kPa): 972.8 ± 1.2 kg/m3 | mass density (4475.5 kPa): 972.8 ± 1.2 kg/m3 | mass density (4478.4 kPa): 972.9 ± 1.2 kg/m3 | mass density (4490.5 kPa): 972.9 ± 1.2 kg/m3 | mass density (4492.3 kPa): 972.8 ± 1.2 kg/m3 | mass density (4499.1 kPa): 972.9 ± 1.2 kg/m3
